Measured values as given in patent US11760716B2, “Drug crystallization under microgravity conditions” (SPACEPHARMA R&D ISRAEL LTD., priority 2018, dated 2023).

What was measured:
[1] = Crystal width from scanning electron microscope micrographs (FIG. 3); assay type: physicochemical
Protocol: Gradual cooling of the vilanterol ethanolic solution (25 mg/ml) in rubber container (4), placed in one storage compartment (3), was carried out by reducing the temperature from 37° C. to 4° C. by storing the container in a refrigerator inside the ISS until the return to Earth. The results obtained upon return to Earth show the vilanterol space grown crystals in rubber container (4).
Vilanterol (250 mg) was dissolved in 10 ml ethanol to result in a vilanterol solution having a final concentration of 25 mg/ml. Main compartment (2) of cassette (1) (FIG. 1A) was filled with 2 ml of the prepared vilanterol/ethanol solution. In addition, one rubber container (4), placed in one storage compartment (3), was filled with 1 ml heptane (anti-solvent). Cassette (1) was kept at 37° C.
After 10 days from launch into space, one plunger was released thereby activating one rubber container (4) in one storage compartment (3), allowing 1 ml of heptane to flow into main compartment (2), which, as mentioned above, comprises the vilanterol/ethanol solution. […]
The experiments performed in space on board of the ISS yielded crystals that were substantially larger and of higher crystalline order compared to their Earth-grown equivalents. […] The quantity of material manufactured in orbit was sufficient for complete characterization study and further processing tests. […]

[2] = Highest concentration of vilanterol dissolvable in ethanol at 37° C.; assay type: physicochemical; settings: ethanol as the solvent
Protocol: In order to obtain optimal results in space, adjustment of the Vilanterol crystallization protocol to fit the system of the invention, and vice versa, was required. The original main compartment volume ranged between 0.1 to 1 ml. To maximize the amount of drug used in the experiment, and still meet the safety limitation approved by NASA, the main compartment (2) size was increased to 2 ml. The vilanterol concentration was adjusted according to the maximum temperature in which the payload could be stored on the ISS (37° C.).

OCc1cc([C@@H](O)CNCCCCCCOCCOCc2c(Cl)cccc2Cl)ccc1O [vilanterol, 4-{(1R)-2-[(6-{2-[(2,6-dichlorobenzyl)oxy]ethoxy}hexyl)amino]-1-hydroxyethyl}-2-(hydroxymethyl)phenol]
width of crystals ([1]; crystals crystalized in space under microgravity (FIG. 3, right hand panel)): 10-20 microns
width of crystals ([1]; crystals crystalized on Earth, 1 g (FIG. 3, left hand panel)): a few
highest concentration of vilanterol that could be dissolved [2]: 2.5 % w/v
